Measurements taken from paper PMC5293585, “Characteristics of a water-forming NADH oxidase from Methanobrevibacter smithii, an archaeon in the human gut” (Bioscience Reports, 2016).

Columns and labels:
[1] = target: T1, NOX-ms (Methanobrevibacter smithii, UniProt A5UJ73); experiment: absorption spectrum of holo, apo and reconstituted enzyme; activity restored by FAD; assay type: binding; settings: apoenzyme reconstituted with equimolar FAD, room temperature, 5 min, dialysed
T1 construct: gene Msm_0046; N-terminal His-tag (pET28a, EcoRI/XhoI), tag kept; E. coli BL21(DE3); FAD-containing holoenzyme (apo form for the FAD row)
T1 sequence (A5UJ73 1-444): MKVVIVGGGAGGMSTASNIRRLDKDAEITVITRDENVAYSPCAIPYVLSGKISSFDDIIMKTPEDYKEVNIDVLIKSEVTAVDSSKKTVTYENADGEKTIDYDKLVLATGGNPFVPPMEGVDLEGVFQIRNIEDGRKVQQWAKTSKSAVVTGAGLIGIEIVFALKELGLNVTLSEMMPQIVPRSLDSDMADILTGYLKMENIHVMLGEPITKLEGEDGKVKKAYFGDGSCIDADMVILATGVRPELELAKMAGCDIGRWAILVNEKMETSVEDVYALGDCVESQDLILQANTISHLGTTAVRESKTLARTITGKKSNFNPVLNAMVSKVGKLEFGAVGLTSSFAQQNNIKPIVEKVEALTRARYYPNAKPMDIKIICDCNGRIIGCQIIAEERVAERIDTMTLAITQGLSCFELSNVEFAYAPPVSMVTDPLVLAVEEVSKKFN

[2] = target: T1, NOX-ms; experiment: NADH oxidation at A340, Michaelis-Menten fit; assay type: biochemical; settings: apparent; O2 as co-substrate (aerobic); NADH 0.02-0.6 mM; optimal conditions (about 37°C, 50 mM sodium phosphate)
[3] = target: T2, NOX-ms (Methanobrevibacter smithii, UniProt A5UJ73, C230A); experiment: NADH oxidation at A340, relative activity; assay type: biochemical; settings: apparent; O2 as co-substrate (aerobic); NADH 0.02-0.6 mM; optimal conditions (about 37°C, 50 mM sodium phosphate)
T2 construct: gene Msm_0046; N-terminal His-tag (pET28a, EcoRI/XhoI), tag kept; E. coli BL21(DE3); FAD-containing holoenzyme (apo form for the FAD row)
T2 sequence (A5UJ73 entry or part of it C230A): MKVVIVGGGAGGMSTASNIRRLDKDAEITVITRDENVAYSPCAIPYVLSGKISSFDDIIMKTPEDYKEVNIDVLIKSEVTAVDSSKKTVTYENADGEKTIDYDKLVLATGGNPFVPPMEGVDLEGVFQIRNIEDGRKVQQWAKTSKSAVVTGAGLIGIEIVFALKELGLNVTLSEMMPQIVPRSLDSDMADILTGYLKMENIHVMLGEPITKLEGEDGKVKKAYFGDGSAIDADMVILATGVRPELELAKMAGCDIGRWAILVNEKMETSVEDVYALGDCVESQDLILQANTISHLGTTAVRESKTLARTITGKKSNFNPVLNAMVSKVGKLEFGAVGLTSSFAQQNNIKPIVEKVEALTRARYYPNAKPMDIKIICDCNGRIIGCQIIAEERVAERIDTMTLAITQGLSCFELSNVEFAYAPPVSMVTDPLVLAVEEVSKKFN

Compound	absorption spectrum of holo, apo and reconstituted enzyme; activity restored by [1]	Km [2] [µM]	NADH oxidation at A340, relative activity [3]
Cc1cc2nc3c(=O)[nH]c(=O)nc-3n(C[C@H](O)[C@H](O)[C@H](O)COP(=O)(O)OP(=O)(O)OC[C@H]3O[C@@H](n4cnc5c(N)ncnc54)[C@H](O)[C@@H]3O)c2cc1C [FAD]	The holoenzyme can be reconstituted by incubating equimolar concentrations of apomonomers and FAD		
NC(=O)C1=CN([C@@H]2O[C@H](COP(=O)(O)OP(=O)(O)OC[C@H]3O[C@@H](n4cnc5c(N)ncnc54)[C@H](O)[C@@H]3O)[C@@H](O)[C@H]2O)C=CC1 [NADH]		47.8 to 54.6	the C230A mutant had similar NOX activity to that of the wild-type protein
